Data published in ChEMBL document CHEMBL1201862, “PubChem BioAssay data set” (2004).
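Compound exposure: 48 hours, 5 concentrations, 96-well plates. Abbreviation: GI50, concentration required for 50% inhibition of growth.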 Calls of active or inactive are those of the source. Cut-off read from the data, not from the text of the source: active = GI50 up to about 1.1 µM and inactive = higher.

Assays:
Assay in all cases: NCI-60 cell line screen, 48 h
HCC 2998 = test system: HCC 2998
OVCAR-8 = test system: OVCAR-8
M14 = test system: M14
SN12C = test system: SN12C
HOP-92 = test system: HOP-92
ACHN = test system: ACHN
NCI/ADR-RES = test system: NCI/ADR-RES
KM12 = test system: KM12
SK-MEL-28 = test system: SK-MEL-28
MDA-MB-435 = test system: MDA-MB-435
UACC-62 = test system: UACC-62
PC-3 = test system: PC-3
RXF 393 = test system: RXF 393
MDA-MB-231 = test system: MDA-MB-231
SR = test system: SR
Hs-578T = test system: Hs-578T
OVCAR-5 = test system: OVCAR-5
SK-OV-3 = test system: SK-OV-3
MCF7 = test system: MCF7
CCRF-CEM = test system: CCRF-CEM

Structure (SMILES)	GI50 (HCC 2998)	GI50 (OVCAR-8)	GI50 (M14)	GI50 (SN12C)	GI50 (HOP-92)	GI50 (ACHN)	GI50 (NCI/ADR-RES)	GI50 (KM12)	GI50 (SK-MEL-28)	GI50 (MDA-MB-435)	GI50 (UACC-62)	GI50 (PC-3)	GI50 (RXF 393)	GI50 (MDA-MB-231)	GI50 (SR)	GI50 (Hs-578T)	GI50 (OVCAR-5)	GI50 (SK-OV-3)	GI50 (MCF7)	GI50 (CCRF-CEM)
O=C(N/N=C\c1cccc(O)c1)c1ccncc1	> 100 µM (inactive)	> 100 µM (inactive)	> 100 µM (inactive)	> 100 µM (inactive)	> 100 µM (inactive)	> 100 µM (inactive)	> 100 µM (inactive)	> 100 µM (inactive)	> 100 µM (inactive)	> 100 µM (inactive)	> 100 µM (inactive)	> 100 µM (inactive)	> 100 µM (inactive)	> 100 µM (inactive)	> 100 µM (inactive)	> 100 µM (inactive)	> 100 µM (inactive)			
CN(Cc1cccc2ccccc12)Cc1cccc2ccccc12	22.7 µM (inactive)	70.5 µM (inactive)	27.5 µM (inactive)	36.6 µM (inactive)		37.6 µM (inactive)	47.5 µM (inactive)	41.5 µM (inactive)	35.2 µM (inactive)	35.7 µM (inactive)	67.5 µM (inactive)	24 µM (inactive)	47.1 µM (inactive)	21.8 µM (inactive)	30.8 µM (inactive)	44.3 µM (inactive)	43 µM (inactive)	65.6 µM (inactive)	20.7 µM (inactive)	16.6 µM (inactive)
Nc1nc(N)c2c(Cl)c(CNc3ccc(C(=O)NC(CC(=O)O)C(=O)O)cc3)ccc2n1 (stereo unspecified)	> 100 µM (inactive)	< 0.01 µM (active)	< 0.01 µM (active)	< 0.01 µM (active)	0.043 µM (active)	< 0.01 µM (active)	< 0.01 µM (active)	< 0.01 µM (active)		< 0.01 µM (active)	< 0.01 µM (active)	9.31 µM (inactive)		> 100 µM (inactive)	< 0.01 µM (active)	22.8 µM (inactive)	< 0.01 µM (active)	< 0.01 µM (active)	< 0.01 µM (active)	< 0.01 µM (active)
O=C1c2ccccc2C(=O)N1c1ccc(Cc2ccc(N3C(=O)c4ccccc4C3=O)cc2)cc1	> 100 µM (inactive)	> 100 µM (inactive)	> 100 µM (inactive)	> 100 µM (inactive)	> 100 µM (inactive)	> 100 µM (inactive)	> 100 µM (inactive)	> 100 µM (inactive)	> 100 µM (inactive)	> 100 µM (inactive)	> 100 µM (inactive)	> 100 µM (inactive)	> 100 µM (inactive)	> 100 µM (inactive)		> 100 µM (inactive)	> 100 µM (inactive)	> 100 µM (inactive)	> 100 µM (inactive)	
COc1cc2c3c(c4cc(OC)c(OC)cc4c2cc1OC)C(=O)C1CCC(=O)N1C3 (stereo unspecified)	21.7 µM (inactive)	27.2 µM (inactive)			12 µM (inactive)	5.86 µM (inactive)	94.4 µM (inactive)	70.1 µM (inactive)	19.8 µM (inactive)	21.9 µM (inactive)	16.6 µM (inactive)	25.6 µM (inactive)	14.8 µM (inactive)	55.5 µM (inactive)		3.3 µM (inactive)		14.2 µM (inactive)	11.9 µM (inactive)	6.64 µM (inactive)
N[C@@H]1c2c(Br)sc(Br)c2[C@H](O)[C@@H]1O	> 100 µM (inactive)	> 100 µM (inactive)	> 100 µM (inactive)	> 100 µM (inactive)	> 100 µM (inactive)	> 100 µM (inactive)	> 100 µM (inactive)	> 100 µM (inactive)	> 100 µM (inactive)	> 100 µM (inactive)	> 100 µM (inactive)	> 100 µM (inactive)	> 100 µM (inactive)	> 100 µM (inactive)		> 100 µM (inactive)	> 100 µM (inactive)	> 100 µM (inactive)	> 100 µM (inactive)	> 100 µM (inactive)
N#Cc1ccccc1NC(=O)C(=O)c1c(O)c2ccccc2oc1=O	> 100 µM (inactive)	> 100 µM (inactive)	> 100 µM (inactive)	> 100 µM (inactive)	> 100 µM (inactive)	> 100 µM (inactive)	> 100 µM (inactive)	> 100 µM (inactive)	> 100 µM (inactive)	> 100 µM (inactive)	> 100 µM (inactive)	> 100 µM (inactive)	> 100 µM (inactive)	> 100 µM (inactive)		> 100 µM (inactive)	> 100 µM (inactive)	> 100 µM (inactive)	> 100 µM (inactive)	> 100 µM (inactive)
ClCCCN(CCCCl)c1ccc(/C=N/c2cccc(Cl)c2)cc1	32.1 µM (inactive)	6.95 µM (inactive)	29.3 µM (inactive)	10.4 µM (inactive)	29.2 µM (inactive)	7.26 µM (inactive)	11.2 µM (inactive)	20.5 µM (inactive)	55.8 µM (inactive)	28.8 µM (inactive)	1.49 µM (inactive)	10.7 µM (inactive)	14.2 µM (inactive)	12.2 µM (inactive)		16.1 µM (inactive)	22.1 µM (inactive)	49.5 µM (inactive)	23.5 µM (inactive)	16.4 µM (inactive)
CC1OC2OC3C(OCC(O)C3O)OC(=O)[C@]34CCC(C)(C)CC3C3=CCC5[C@@]6(C)C[C@H](O)[C@H](OC7OC(CO)C(O)C(O)C7OC7OCC(OC(=O)CC(C)(O)CC(=O)OC1C(O)C2O)C(O)C7O)[C@@](C)(CO)C6CC[C@@]5(C)[C@]3(C)CC4 (stereo partly specified)	2.43 µM (inactive)	4.5 µM (inactive)	2.82 µM (inactive)	9.53 µM (inactive)	2.32 µM (inactive)	6.34 µM (inactive)	12.7 µM (inactive)	2.82 µM (inactive)	1.96 µM (inactive)	5.89 µM (inactive)	4.3 µM (inactive)	2.17 µM (inactive)		9.23 µM (inactive)	6.35 µM (inactive)	8.34 µM (inactive)	2.66 µM (inactive)	3.19 µM (inactive)	13 µM (inactive)	5.68 µM (inactive)
CN(C)CCNC(=O)c1cccc2c(NCC(=O)O)c3ccccc3nc12		4.61 µM (inactive)	17 µM (inactive)	9.98 µM (inactive)	8.04 µM (inactive)	5.82 µM (inactive)	11.9 µM (inactive)	11.9 µM (inactive)	20.6 µM (inactive)	11.4 µM (inactive)	15.1 µM (inactive)	10.5 µM (inactive)		14.7 µM (inactive)	1.36 µM (inactive)	18.5 µM (inactive)	13.5 µM (inactive)	21.1 µM (inactive)	3.79 µM (inactive)	36 µM (inactive)
O=C(NCCCCCCNCc1cccc2ccccc12)Nc1cccc2ccccc12	85.3 µM (inactive)	> 100 µM (inactive)	34.3 µM (inactive)	> 100 µM (inactive)	> 100 µM (inactive)	> 100 µM (inactive)	> 100 µM (inactive)	> 100 µM (inactive)	> 100 µM (inactive)	> 100 µM (inactive)	> 100 µM (inactive)	> 100 µM (inactive)	> 100 µM (inactive)	> 100 µM (inactive)		> 100 µM (inactive)	63.1 µM (inactive)		> 100 µM (inactive)	> 100 µM (inactive)
O=C1CCSSCCC(=O)NCCN1		> 100 µM (inactive)	> 100 µM (inactive)	> 100 µM (inactive)	> 100 µM (inactive)	> 100 µM (inactive)	> 100 µM (inactive)	> 100 µM (inactive)	> 100 µM (inactive)	> 100 µM (inactive)	> 100 µM (inactive)	> 100 µM (inactive)	> 100 µM (inactive)	> 100 µM (inactive)	91.2 µM (inactive)	> 100 µM (inactive)	> 100 µM (inactive)	> 100 µM (inactive)		> 100 µM (inactive)
CCOC(=O)C1=CC(C)(C(=O)OCC)Nc2c(nc(OC)[nH]c2=O)N1 (stereo unspecified)	> 10 µM (inactive)	> 10 µM (inactive)	> 10 µM (inactive)	> 10 µM (inactive)	> 10 µM (inactive)	> 10 µM (inactive)	> 10 µM (inactive)	> 10 µM (inactive)	> 10 µM (inactive)			> 10 µM (inactive)	> 10 µM (inactive)	> 10 µM (inactive)		> 10 µM (inactive)	> 10 µM (inactive)	> 10 µM (inactive)	> 10 µM (inactive)	> 10 µM (inactive)
COc1cc([N+](=O)[O-])c(S(=O)(=O)O)cc1-n1nc(-c2ccccc2)n[n+]1-c1cc(S(=O)(=O)[O-])c([N+](=O)[O-])cc1OC	> 100 µM (inactive)	> 100 µM (inactive)	> 100 µM (inactive)	> 100 µM (inactive)		> 100 µM (inactive)	> 100 µM (inactive)	> 100 µM (inactive)	> 100 µM (inactive)	> 100 µM (inactive)	> 100 µM (inactive)	> 100 µM (inactive)	> 100 µM (inactive)	> 100 µM (inactive)	> 100 µM (inactive)	> 100 µM (inactive)	> 100 µM (inactive)	> 100 µM (inactive)	> 100 µM (inactive)	> 100 µM (inactive)
Cc1ccc2c(c1)[n+]([O-])c(N)n[n+]2[O-]		> 100 µM (inactive)	> 100 µM (inactive)	> 100 µM (inactive)		> 100 µM (inactive)	> 100 µM (inactive)	> 100 µM (inactive)	> 100 µM (inactive)	> 100 µM (inactive)	> 10 µM (inactive)	> 100 µM (inactive)		> 100 µM (inactive)	> 100 µM (inactive)	> 100 µM (inactive)	> 100 µM (inactive)	> 100 µM (inactive)	> 100 µM (inactive)	91.2 µM (inactive)
